Entries after “also recorded” stand apart in the source; their conditions may differ. Where a name gives a salt, the structure may show the parent alone.
Experiments:
C57BL/6 mice = assay: Topical application to depilated dorsal skin: hair length, dermal thickness, anagen follicles, follicle density; type: in vivo, mouse; conditions: for hair length distribution histogram relative to control group: day 23, topical once daily; for anagen hair cycle (anagen hair follicles by morphology) / follicle density (number of follicles per mm): topical once daily for 3 weeks
Protocol: We tested compounds to determine whether their topical application could induce anagen hair cycle and follicle density. Briefly, seven-week old C57BL/6 mice were used. […] Mice were induced to enter anagen phase by being depilated in the dorsal region. Compounds ([…]) were topically applied onto the dorsal skin once daily for 3 weeks. Three mice were used for each compound group. Approximately 30 hairs from each mouse were plucked at specific days (day 16, day 19, and day 23) and the hair length was measured. Additionally, skin samples for cryosectioning were obtained from the treated dorsal region of each mouse.
All compounds were resuspended in vehicle solution (1.2 propanediol:EtOH:H20 (40:20:40)). Compound concentrations were as follows: alprostadil 40 μg/mL; kaempferol 28.6 μg/mL; pramoxine 329.8 μg/mL; MG 624 45.13 μg/mL. Also tested was Gold Bond topical anesthetic cream. Latanoprost (150 μg/mL) was used as a positive control and AKT inhibitor A443654 (100 μM) was used as a negative control.
FIG. 19 is a series of photomicrographs and graphs showing that topical application of the indicated compounds induces dermal thickness. Dorsal skin of animals topically treated with compounds described above, then isolated, cryosectioned and stained with hematoxylin and eosin. Dermal thickness was manually measured randomly through the slices. A mean of three measurements through the slice were performed and about 20-30 slices were analyzed for each mouse within each compound group.
FIG. 20 is a series of photomicrographs and graphs showing that alprostadil, kaempferol, pramoxine, or MG 624 induces anagen hair cycle and follicle density. The density is expressed as number of follicles per mm whereas the anagen hair follicles are determined by morphology.

human SKPs [1] = assay: Dose-response curves for proliferation of human SKPs in presence of EGF and FGF2; type: cell-based; conditions: for proliferation of human SKPs: 100 nM, compared to cells grown in the absence of the agent
Protocol: The proliferative effects of MG 624 on SKPs and neuroblastoma tumor initiating cells have also been studied in detail. Dose response curves for proliferation of human SKPs and neuroblastoma tumor initiating cells in response to MG 624 were generated in the presence of EGF and FGF2. At 200 nM MG 624, SKP cell proliferation is enhanced (FIG. 5).
To characterize enhancement of proliferation brought about by the agents identified above, dose-response curves for MG624, GSK3β, pramoxine, kaempferol, and alprostadil in presence of EGF and FGF2 were generated (FIGS. 6A-6E).

human SKPs [2] = assay: In vitro sphere assay, human SKPs from foreskin; type: cell-based; conditions: treated for seven days, Hoechst stain, compared to vehicle control
Protocol: (§1) FIG. 7 is a schematic illustration of the in vitro sphere assay. SKPs were isolated from mouse back, whisker and human foreskin and allowed to grow in spheres. After 2-3 passages, spheres were dissociated and 3000 cells were plated in each well of a 96-well plate. Cells were then treated in triplicate with different concentrations of drugs or only with vehicle DMSO. Drugs were applied again on day 3 and the number of spheres was analyzed on day 7.
as §1, with “SKPs” for “FIG. 7 is a schematic illustration of the in vitro sphere assay. SKPs”, “whisker,” for “whisker”, “96 well” for “96-well”, “or” for “or only”, “(DMSO) only.” for “DMSO.”, “and” for “and the”
Sphere size is […] with, and is thus a measure of, cell proliferation. SKPs were isolated from human foreskin and allowed to grow in spheres. After 2-3 passages, spheres were dissociated and 3000 cells were plated in each well of a 96 well plate. Cells were then treated in triplicate with (a) 100 nM of a single drug, (b) a combination of drugs in which each drug is present at a concentration of 100 nM, or (c) vehicle (DMSO). Drugs were applied again on day 3. To assess how well cells proliferate within the sphere, the size of spheres was analyzed on day 7. […]

Sox2-EGFP mice = assay: Single agent topical application, hair length in shaved Sox2-EGFP mice; type: in vivo, mouse; conditions: for hair length distribution histogram relative to control group: day 23, classes of 200 μm; for hair length: topical daily, days 16, 19 and 23, compared to control mice
Protocol: Sox2-EGFP mice, 7-8 weeks old, were shaved on the dorsal back to synchronize the hair cycle, and kaempferol (Kae) or alprostadil (Alp) was topically applied daily. Control mice were treated with vehicle only. At days 16, 19, and 23, about 30-40 hairs were plucked from each mouse, and their length was measured. Three or four mice were used in each group. […] Hair length promoted by the compounds on day 23 is shown in distribution histograms relative to the control group. Hair length was binned in classes of 200 μm, and each class was expressed as a percentage of total hair population.

[3] = test system: xenograft neuroblastoma tumors; assay: Tumor formation, xenograft neuroblastoma tumors in vivo; set-up: species or system human; conditions: FIG. 4C

| SMILES | hair length distribution histogram relative to control group (C57BL/6 mice) | anagen hair cycle (anagen hair follicles by morphology) (C57BL/6 mice) | follicle density (number of follicles per mm) (C57BL/6 mice) | proliferation of human SKPs (human SKPs [1]) | size of human SKP spheres (human SKPs [2]) | hair length distribution histogram relative to control group (Sox2-EGFP mice) | hair length (Sox2-EGFP mice) | SKP proliferation (human SKPs [1]; 200 nM) | tumor formation [3] |
| --- | --- | --- | --- | --- | --- | --- | --- | --- | --- |
| CCCCC[C@H](O)/C=C/[C@H]1[C@H](O)CC(=O)[C@@H]1CCCCCCC(=O)O [Alprostadil, alprostadil] | shift versus longer hair length | induces | induces | enhanced proliferation | increase the size of human SKP spheres | shift to longer hair lengths | increase in hair length |  |  |
| O=c1c(O)c(-c2ccc(O)cc2)oc2cc(O)cc(O)c12 [Kaempferol] | shift versus longer hair length | induces | induces | enhanced proliferation | increase the size of human SKP spheres | shift to longer hair lengths | increase in hair length |  |  |
| CC[N+](CC)(CC)CCOc1ccc(/C=C/c2ccccc2)cc1.[I-] [MG 624] |  | induces | induces | enhanced proliferation |  |  |  | enhanced; also recorded: increased |  |
| CCCCOc1ccc(OCCCN2CCOCC2)cc1 [Pramoxine hydrochloride, Pramoxine] |  | induces | induces | enhanced proliferation |  |  |  |  |  |
| CC[C@]1(O)C[C@@H]2CN(CCc3c([nH]c4ccccc34)[C@@](C(=O)OC)(c3cc4c(cc3OC)N(C)[C@H]3[C@@](O)(C(=O)OC)[C@H](OC(C)=O)[C@]5(CC)C=CCN6CC[C@]43[C@@H]65)C2)C1 [vinblastine] |  |  |  |  |  |  |  |  | inhibition of tumor formation |

Reference: US8748177B2, “Compositions for proliferation of cells and related methods” (The Hospital for Sick Children, priority 2008, dated 2014)
